# Measured values reported in patent US20060019270A1, “Global DNA methylation assessment using bisulfite PCR” (Board of Regents The University of Texas System, priority 2004, published 2006).
# What was measured:
# Type in all cases: cell-based, human
# [1] = tested on: Alu element methylation in Hct116 cells; test: COBRA (MboI) of Alu repetitive element PCR, Hct116 cells treated with DAC; conditions: 5 μM DAC for three days, 29% prior to treatment
# Experimental: (§1) Hct116, RKO and SW48, colon cancer cell lines (American Type Culture Collection, Manassas, Va.), were cultured using standard methods. Cells were treated with 5 μM 5-aza-2′deoxycytidine (DAC) for three days prior to being harvested. DNA from cell lines and peripheral blood leukocytes was extracted using phenol-chloroform extraction methods well known to one with skill on the art.
# Bisulfite modification of genomic DNA is known in the art (see Clark et. al, 1994). In brief, 1.5 μg prepared 10 mM hydroquinone (Sigma) and 520 μl of 3M Sodium Bisulfite (Sigma) at pH=5.0 were added and mixed. The samples were overlayed with mineral oil to prevent evaporation and incubated at 50° C. for 16 hours. […] Bisulfite treated DNA was stored at −20° C. until ready for use.
# Methylation analysis of Alu repetitive elements was performed initially by the COBRA assay. […] The digested PCR product was then separated by polyacrylamide gel electrophoresis or the PCR products were quantitated using a capillary electrophoresis system, an Agilent 2100 Bioanalyzer (Agilent Technologies, Palo Alto, Calif.).
# In order to test whether Alu element […] LINE-1 methylation could approximate global methylation, COBRA, restriction digestion of the repetitive element PCR product, was used to quantitate DNA methylation in cell lines treated with 5-aza-2′deoxycytidine (DAC) (FIG. 3). […]
# [2] = tested on: LINE-1 methylation in RKO cells; test: COBRA (HinfI) of LINE-1 PCR, RKO cells treated with DAC; conditions: 5 μM DAC for three days, decrease from 67%
# Experimental: as §1
# Bisulfite modification of genomic DNA is known in the art (see Clark et. al, 1994). In brief, 1.5 μg prepared 10 mM hydroquinone (Sigma) and 520 μl of 3M Sodium Bisulfite (Sigma) at pH=5.0 were added and mixed. The samples were overlayed with mineral oil to prevent evaporation and incubated at 50° C. for 16 hours. The bisulfite treated DNA was isolated using Wizard DNA Clean-Up System (Promega). The DNA was eluted by 50 μl of warm water and 5.5 μl of 3M NaOH were added for 5 minutes. The DNA was ethanol precipitated with glycogen as a carrier and resuspended in 20 μl water. Bisulfite treated DNA was stored at −20° C. until ready for use. […]
# In order to test whether Alu element […] LINE-1 methylation could approximate global methylation, COBRA, restriction digestion of the repetitive element PCR product, was used to quantitate DNA methylation in cell lines treated with 5-aza-2′deoxycytidine (DAC) (FIG. 3). […] Thus both assays reliably detected inhibition of methylation induced by DAC. […]
# [3] = tested on: LINE-1 methylation in Hct116, RKO and SW48 cell lines; test: LINE-1 methylation assay in cell lines treated with DAC (FIG. 14); conditions: compared with untreated
# Experimental: Hct116, RKO and SW48 cell lines were treated with 5-aza-2′deoxycytidine (DAC). The genomic DNA was treated with sodium bisulfite and a non-specific PCR was performed which amplified a pool of LINE-1 repetitive elements. The PCR product was then digested with HinfI, which only cuts repetitive elements that were originally methylated. The LINE-1 PCR assays the methylation of two sites and therefore HinfI can generate five possible digestion products of 285, 247, 166, 128 and 38 bp (not seen). The digested PCR product was separated by polyacrylamide gel electrophoresis and stained with ethidium bromide. The PCR bands were quantitated and the amount of methylation is shown below each gel lane.
# Methylation of the L1 promotor was investigated by COBRA assay (Xiong and Laird, 1997), and bisulfite treatment was performed as described above. A […] PCR was carried out in 60 mM Tris-HCl pH=8.8, 15 mM Ammonium Sulfate, 0.5 mM MgCl2, 1 mM dNTP mix, and 1 unit of Taq polymerase. PCR cycling conditions were 95° C. for 30 seconds, 50° C. for 30 seconds, and 72° C. for 30 seconds for 28 cycles. […] Gels were stained with ethidium bromide, imaged, and quantitated in a Bio-Rad Geldoc 2000 imager (Bio-Rad, Hercules, Calif.). […]
smiles,measurement,setting,value
"Nc1ncn([C@H]2C[C@H](O)[C@@H](CO)O2)c(=O)n1 [decitabine, 5-aza-2′-deoxycytidine]",Alu element methylation after treatment with DAC,[1],16%
same,LINE-1 methylation after treatment with DAC,[2],29%
same,LINE-1 methylation in DAC treated cell lines,[3],lower degree of methylation
